Test results as given in ChEMBL document CHEMBL6134930, “Discovery of AB801, a Potent and Selective Inhibitor of AXL Receptor Tyrosine Kinase for Use in Cancer Therapy” (J Med Chem, 2025).

Experiments:
[1] = molecular target: T1, Tyrosine-protein kinase receptor UFO (Homo sapiens, UniProt P30530); test: Inhibition of human AXL measured after 150 mins by ATP-competitive HTRF based biochemical assay
T1 sequence (P30530 whole entry): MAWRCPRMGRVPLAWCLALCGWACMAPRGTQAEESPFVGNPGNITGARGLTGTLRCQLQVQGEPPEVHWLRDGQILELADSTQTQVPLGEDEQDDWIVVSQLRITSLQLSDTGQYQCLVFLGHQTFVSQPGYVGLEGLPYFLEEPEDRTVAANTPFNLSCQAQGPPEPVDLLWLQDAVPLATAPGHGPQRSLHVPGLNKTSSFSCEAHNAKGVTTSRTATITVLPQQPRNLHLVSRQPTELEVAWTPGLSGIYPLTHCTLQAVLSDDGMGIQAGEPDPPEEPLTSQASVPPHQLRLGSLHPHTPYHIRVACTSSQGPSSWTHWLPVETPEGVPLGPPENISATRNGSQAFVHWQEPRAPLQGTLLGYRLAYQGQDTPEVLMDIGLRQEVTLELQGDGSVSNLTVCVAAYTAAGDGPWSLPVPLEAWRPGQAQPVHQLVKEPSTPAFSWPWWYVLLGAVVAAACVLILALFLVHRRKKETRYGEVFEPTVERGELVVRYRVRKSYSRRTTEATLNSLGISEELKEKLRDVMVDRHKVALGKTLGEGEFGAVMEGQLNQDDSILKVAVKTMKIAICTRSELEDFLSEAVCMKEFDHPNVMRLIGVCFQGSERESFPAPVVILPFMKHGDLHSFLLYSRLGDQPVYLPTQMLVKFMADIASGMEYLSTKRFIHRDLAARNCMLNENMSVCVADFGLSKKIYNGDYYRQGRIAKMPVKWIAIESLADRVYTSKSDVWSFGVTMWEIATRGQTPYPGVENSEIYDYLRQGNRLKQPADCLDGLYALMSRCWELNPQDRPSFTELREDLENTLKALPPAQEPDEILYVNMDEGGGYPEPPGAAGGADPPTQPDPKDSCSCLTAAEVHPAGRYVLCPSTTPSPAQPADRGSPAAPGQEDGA

[2] = molecular target: T1, Tyrosine-protein kinase receptor UFO; test: Binding affinity to AXL (unknown origin) expressed in HEK293 cells transfected with Nano-Luc fusion vector assessed as dissociation constant by measuring decrease in BRET signal preincubated for 1 hr followed by K-5 NanoBRET tracer addition incubated for 2 hrs; format: cell-based
[3] = AUCinf in Sprague-Dawley rat at 2 mg/kg, po measured up to 8 hrs by LC-MS/MS analysis; format: ADME, organism-based; conditions: in vivo
[4] = Metabolic stability in rat hepatocytes assessed as intrinsic clearance measured per 10^6 cells; format: ADME, cell-based, Hepatocyte; conditions: read-out: CLH
[5] = Metabolic stability in human hepatocytes assessed as intrinsic clearance measured per 10^6 cells; format: ADME, cell-based, Hepatocyte; conditions: read-out: CLH
[6] = molecular target: T1, Tyrosine-protein kinase receptor UFO; test: Inhibition of autophosphorylation AXL (unknown origin) expressed in HEK293 cells assessed as NanoLuc activity associated with phosphorylated proteins measured after 1 hr incubation by intracellular pAXL-ELISA; format: cell-based
[7] = Efflux ratio in human Caco-2 cells; format: ADME, cell-based
[8] = Apparent permeability of compound from apical to basolateral side in human Caco-2 cells; format: ADME, cell-based; conditions: read-out: permeability
hERG (KCNH2) = hERG (KCNH2) (Homo sapiens, UniProt Q12809); test: Inhibition of hERG at 10 uM by high throughput cell based patch clamp assay; format: toxicity
Sequence of hERG (KCNH2) (Q12809 whole entry): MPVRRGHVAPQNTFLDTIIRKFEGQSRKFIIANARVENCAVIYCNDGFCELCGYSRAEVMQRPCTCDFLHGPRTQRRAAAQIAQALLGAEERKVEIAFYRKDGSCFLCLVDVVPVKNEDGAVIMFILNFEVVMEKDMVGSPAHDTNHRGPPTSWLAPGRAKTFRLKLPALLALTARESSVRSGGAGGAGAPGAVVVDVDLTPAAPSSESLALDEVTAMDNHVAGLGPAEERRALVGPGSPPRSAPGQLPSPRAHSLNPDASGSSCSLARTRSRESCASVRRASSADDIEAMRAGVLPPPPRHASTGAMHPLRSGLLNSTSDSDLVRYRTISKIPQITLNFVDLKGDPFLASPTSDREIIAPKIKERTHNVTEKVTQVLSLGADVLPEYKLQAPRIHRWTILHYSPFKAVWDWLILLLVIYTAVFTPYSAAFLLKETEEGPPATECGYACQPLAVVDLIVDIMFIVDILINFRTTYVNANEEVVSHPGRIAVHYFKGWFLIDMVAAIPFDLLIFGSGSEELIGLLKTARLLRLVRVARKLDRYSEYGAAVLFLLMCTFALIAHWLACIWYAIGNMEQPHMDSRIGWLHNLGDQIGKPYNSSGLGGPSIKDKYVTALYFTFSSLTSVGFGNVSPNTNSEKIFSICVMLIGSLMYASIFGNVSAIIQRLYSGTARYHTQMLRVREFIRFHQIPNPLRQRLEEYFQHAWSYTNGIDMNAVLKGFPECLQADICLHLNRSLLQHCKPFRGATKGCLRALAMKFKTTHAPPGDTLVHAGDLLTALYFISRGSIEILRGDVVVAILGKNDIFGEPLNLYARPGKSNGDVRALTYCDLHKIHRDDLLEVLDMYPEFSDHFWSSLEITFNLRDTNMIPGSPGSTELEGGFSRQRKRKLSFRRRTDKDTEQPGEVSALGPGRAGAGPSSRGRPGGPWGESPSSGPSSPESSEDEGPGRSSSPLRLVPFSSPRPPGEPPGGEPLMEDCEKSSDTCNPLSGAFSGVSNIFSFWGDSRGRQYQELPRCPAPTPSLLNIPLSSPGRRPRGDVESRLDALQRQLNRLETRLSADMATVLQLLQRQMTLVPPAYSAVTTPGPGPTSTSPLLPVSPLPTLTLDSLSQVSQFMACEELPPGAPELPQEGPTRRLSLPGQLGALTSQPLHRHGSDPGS

[9] = Clearance in Sprague-Dawley rat at 0.5 mg/kg, iv measured up to 24 hrs by LC-MS/MS analysis; format: ADME, organism-based; conditions: in vivo

Row | Structure (SMILES) | IC50 [1] [µM] | Kd [2] [µM] | AUC(0-inf) [3] [ng·h/mL] | hepatocyte CLint [4] [µL/min/1e6 cells] | hepatocyte CLint [5] [µL/min/1e6 cells] | IC50 [6] [µM] | efflux ratio [7] | Papp A→B [8] [×10⁻⁶ cm/s] | inhibition at 10 µM (hERG (KCNH2)) [%] | clearance [9] [mL/min/kg]
1 | Cn1cc(-c2ccc(-c3n[nH]c4ncc(-c5ccc6c(c5)CCC(N5C7COCC5C7)CC6)cc34)cc2)cn1 (racemic) | 0.034 | 2.2 | – | – | – | – | – | – | – | –
2 | Cn1nncc1-c1ccc(-c2n[nH]c3ncc(-c4ccc5c(c4)CC[C@@H](N4C6COCC4C6)CC5)cc23)cc1 | 0.0089 | 0.091 | – | – | – | – | – | – | – | –
3 | CP(C)(=O)c1ccc(-c2n[nH]c3ncc(-c4ccc5c(c4)CCC(N4C6COCC4C6)CC5)cc23)cc1 (racemic) | – | 0.17 | – | – | – | – | – | – | – | –
4 | CS(=O)(=O)c1ccc(-c2n[nH]c3ncc(-c4ccc5c(c4)CC[C@@H](N4C6COCC4C6)CC5)cc23)cc1 | 0.0038 | 0.013 | 120 | 9.8 | 5.8 | – | – | – | – | –
5 | FC(F)(F)c1cccnc1-c1ccc(-c2n[nH]c3ncc(-c4ccc5c(c4)CC[C@@H](N4C6COCC4C6)CC5)cc23)cc1 | 0.0082 | – | – | < 2.7 | < 2.7 | 0.73 | – | – | – | –
6 | c1cc(-c2n[nH]c3ncc(-c4ccc5c(c4)CCC(N4C6COCC4C6)CC5)cc23)ccn1 (racemic) | 0.02 | 0.038 | 130 | 13 | 8.7 | – | – | – | – | –
7 | CO[C@H]1C[C@@H](N[C@H]2CCc3ccc(-c4cnc5[nH]nc(-c6ccc(-c7ncccc7C)cc6)c5c4)cc3CC2)C1 | 0.0034 | – | – | 6.4 | < 2.7 | 0.31 | – | – | – | –
8 | O=S1(=O)CCCN1c1ccc(-c2n[nH]c3ncc(-c4ccc5c(c4)CC[C@@H](N4C6COCC4C6)CC5)cc23)cc1 | 0.013 | 0.051 | 39 | < 2.7 | < 2.7 | – | – | – | – | –
9 | c1ccc(-c2ccc(-c3n[nH]c4ncc(-c5ccc6c(c5)CC[C@@H](N5C7COCC5C7)CC6)cc34)cc2)nc1 | 0.005 | 0.075 | 2800 | < 2.7 | < 2.7 | 1.7 | – | – | – | –
10 | Cc1cccnc1-c1ccc(-c2n[nH]c3ncc(-c4ccc5c(c4)CC[C@@H](N[C@H]4CCCOC4)CC5)cc23)cc1 | 0.0026 | – | – | 12 | 5.8 | 0.1 | – | – | – | –
11 | N#Cc1cccnc1-c1ccc(-c2n[nH]c3ncc(-c4ccc5c(c4)CC[C@@H](N4C6COCC4C6)CC5)cc23)cc1 | 0.006 | – | – | < 2.7 | < 2.7 | 0.22 | – | – | – | –
12 | c1cc2c(cc1-c1cnc3[nH]nc(-c4ccc(N5CC6(COC6)C5)cc4)c3c1)CC[C@@H](N1C3COCC1C3)CC2 | 0.027 | 0.12 | – | – | – | – | – | – | – | –
13 | Cn1ncnc1-c1ccc(-c2n[nH]c3ncc(-c4ccc5c(c4)CC[C@@H](N4C6COCC4C6)CC5)cc23)cc1 | 0.0027 | 0.0071 | 410 | 5 | < 2.7 | – | 5.7 | – | – | –
14 | COCCOc1cccnc1-c1ccc(-c2n[nH]c3ncc(-c4ccc5c(c4)CC[C@@H](N4C6COCC4C6)CC5)cc23)cc1 | 0.0013 | – | – | 16 | 3.2 | 0.033 | – | – | – | –
15 | COCCOc1ccc(-c2n[nH]c3ncc(-c4ccc5c(c4)CC[C@@H](N4C6COCC4C6)CC5)cc23)cc1 | 0.012 | 0.066 | 4200 | 9.1 | 14 | – | 0.93 | 17 | 84 | 15
16 | c1cc2c(cc1-c1cnc3[nH]nc(-c4ccc(N5C[C@@H]6C[C@H]5CO6)cc4)c3c1)CC[C@@H](N1C3COCC1C3)CC2 | 0.046 | 0.14 | – | – | – | – | – | – | – | –
17 | O=C1CCCN1c1ccc(-c2n[nH]c3ncc(-c4ccc5c(c4)CC[C@@H](N4C6COCC4C6)CC5)cc23)cc1 | 0.06 | 0.089 | – | – | – | – | – | – | – | –
18 | CN(C)S(=O)(=O)c1ccc(-c2n[nH]c3ncc(-c4ccc5c(c4)CC[C@@H](N4C6COCC4C6)CC5)cc23)cc1 | 0.0026 | 0.015 | – | 110 | 36 | – | – | – | – | –
19 | c1cc2c(cc1-c1cnc3[nH]nc(-c4ccc(N5CCOCC5)cc4)c3c1)CC[C@@H](N1C3COCC1C3)CC2 | 0.066 | 0.19 | – | – | – | – | – | – | – | –
20 | Cc1cccnc1-c1ccc(-c2n[nH]c3ncc(-c4ccc5c(c4)CC[C@@](C)(N4CCC[C@H]4C)CC5)cc23)cc1 | 0.00075 | – | 380 | < 2.7 | < 2.7 | 0.013 | – | – | – | –
21 | Cn1nccc1-c1ccc(-c2n[nH]c3ncc(-c4ccc5c(c4)CC[C@@H](N4C6COCC4C6)CC5)cc23)cc1 | 0.0039 | 0.031 | – | – | – | – | – | – | – | –
22 | c1cc2c(cc1-c1cnc3[nH]nc(-c4ccc5c(c4)OCCO5)c3c1)CCC(N1C3COCC1C3)CC2 (racemic) | 0.017 | 0.069 | – | 46 | 16 | – | – | – | – | –
23 | Cn1ccnc1-c1ccc(-c2n[nH]c3ncc(-c4ccc5c(c4)CC[C@@H](N4C6COCC4C6)CC5)cc23)cc1 | 0.00063 | 0.0019 | 160 | 16 | < 2.7 | – | 18 | – | – | –
24 | O=C1OCCN1c1ccc(-c2n[nH]c3ncc(-c4ccc5c(c4)CC[C@@H](N4C6COCC4C6)CC5)cc23)cc1 | 0.015 | 0.027 | 1500 | 4.3 | < 2.7 | 0.39 | 3.3 | 8 | 44 | 8.17
25 | Cc1cccnc1-c1ccc(-c2n[nH]c3ncc(-c4ccc5c(c4)CC[C@@H](N4C[C@@H]6C[C@H]4CO6)CC5)cc23)cc1 | 0.0018 | – | – | 13 | < 2.7 | 0.057 | – | – | – | –
26 | CCc1cccnc1-c1ccc(-c2n[nH]c3ncc(-c4ccc5c(c4)CC[C@@H](N4C6COCC4C6)CC5)cc23)cc1 | 0.0014 | – | – | 30 | 6.3 | 0.19 | – | – | – | –
27 | c1cc2c(cc1-c1cnc3[nH]nc(-c4ccc(N5C[C@H]6C[C@@H]5CO6)cc4)c3c1)CC[C@@H](N1C3COCC1C3)CC2 | 0.028 | 0.13 | 2900 | 12 | 7.2 | – | 1.2 | 6.7 | – | 38.3
28 | c1cncc(-c2ccc(-c3n[nH]c4ncc(-c5ccc6c(c5)CC[C@@H](N5C7COCC5C7)CC6)cc34)cc2)c1 | 0.019 | 0.41 | – | – | – | – | – | – | – | –
29 | COc1cccnc1-c1ccc(-c2n[nH]c3ncc(-c4ccc5c(c4)CC[C@@H](N4C6COCC4C6)CC5)cc23)cc1 | 0.0024 | – | – | 16 | 13 | 0.12 | – | – | – | –
